row,Structure (SMILES),melting point
1,Cc1cccc(-n2c(-c3cc(-c4ccccc4)c(N4CCOCC4)s3)nc3ccccc3c2=O)c1,194 to 196 °C
2,CC(C)CN1C(=O)COc2cc(F)c([N+](=O)[O-])cc21,108 to 110 °C
3,COc1ccc(-c2cc(=O)c3ccc(OCC(O)CN4CCN(c5ccccc5)CC4)cc3o2)cc1OC (stereo not given),191 to 193 °C
4,CCN(C(=O)c1ccccc1C(=O)c1ccccc1)C1CCCCC1NS(=O)(=O)c1ccc(C)cc1 (stereo not given),202 to 204 °C
5,CCOC(=O)C1=C(C)N(Cc2ccccc2[N+](=O)[O-])C2=C(C(=O)OC2)C1c1ccccc1C(F)(F)F (stereo not given),233 °C
6,CCc1cc(C=O)c(O)c(S(C)(=O)=O)c1,114 to 116 °C
7,Cc1cc(N)ccc1N=Nc1ccc([N+](=O)[O-])cc1,152 °C
8,COc1c(N2CCC(N)C(C)C2)c(F)cc2c(=O)c(C(=O)O)cn(C3CC3)c12 (stereo not given),240 to 242 °C
9,C=C(C)c1cc(C(=O)OC)c(OCc2ccccc2)cc1OCc1ccccc1,92 to 94 °C
10,COc1ccc2c(c1)C(=O)C(=Cc1ccccc1)C2,131 to 133 °C
11,Nc1cc(CC(=O)O)cc2c1NC(C(F)(F)F)CC2 (stereo not given),180 to 181 °C
12,CC(=O)NCc1ccc(Cl)nc1,76 to 77 °C
13,COc1cc2c(cc1OC)-c1c(C(=O)c3ccccc3)c(-c3cc(C)c(O)c(C)c3)c(C)n1CC2,194 to 196 °C
14,Cc1c(S(=O)(=O)c2ccccc2)cc(C(C)(C)C)c(O)c1C(=O)Nc1ccc([N+](=O)[O-])cc1Cl,202 to 204 °C
15,OCC(CO)Oc1cc(-c2ccccc2)on1,117 to 119 °C
16,O=C1c2ccccc2N(N2CCCCC2)C2=NCCN12,229 to 231 °C
17,CC(C)(C1CCCCC1)C(NC(=O)c1ccc(Cl)cc1)NC(=NC#N)Nc1cccnc1 (stereo not given),181 to 183 °C
18,CNC(=O)C1(CCCCCCCCCCCCC2(C(=O)NS(C)(=O)=O)CC2)CC1,111 to 112 °C
19,CC#CN1N=C(c2ccc(F)cc2)c2cc(Cl)ccc2CS1(=O)=O,139 to 140 °C
20,CCOC(=O)C(Cc1nc2ccccc2n1Cc1ccc([N+](=O)[O-])cc1)C(=O)OCC,135 °C
21,CCc1oc2ccccc2c1C(=O)NCc1ccc2c(Br)c(O)ccc2c1,188 to 190 °C
22,Cn1c(S(=O)(=O)C(F)(F)C(F)F)nc(-c2ccc(F)cc2)c1-c1ccc(F)cc1,122 to 124 °C
23,OC1CC2(CCCC2)Oc2ccc(Br)cc21 (stereo not given),123 to 124 °C
24,CN1CCN(c2n[nH]c3ccccc23)CC1,111 to 113 °C
25,COc1cc2c(c(C)c1C)C(O)CC2c1c[nH]cn1 (stereo not given),184 to 189 °C

row,Structure (SMILES),melting point
1,CC1Cc2c(n(-c3ccc(Cl)cc3)c3ncccc3c2=O)O1 (stereo not given),227 to 228 °C
2,COc1ccc(C2CCCN(C(=O)C(F)(F)F)C2)cc1 (stereo not given),88 °C
3,O=C1NC(=O)c2c1c(-c1ccccc1)c(-c1ccccc1)c1[nH]c3ccc(O)cc3c21,> 300 °C
4,CC(=O)Oc1ccc(-c2ccc3cc(C(=O)O)ccc3c2)cc1,256 to 258 °C
5,Cc1csn(-c2ccc(Cl)c(Cl)c2)c1=O,160 to 161 °C
6,O=C(N[C@@H]1CN(C2CCCCC2)C[C@H]1O)c1ccccc1 (relative stereo),154 to 156 °C
7,O=C(Cc1ccc(F)cc1F)c1ccc(I)cc1F,81 to 82 °C
8,COc1ccc(/C=C/C(=O)N[C@@H]2N=C(c3ccccc3)c3ccccc3N(C)C2=O)cc1,129 to 133 °C
9,CC(C)=CCc1cc(C2Oc3c(CC=C(C)C)c(O)cc(O)c3C(=O)C2O)ccc1O (stereo not given),95 to 96 °C
10,CCN(CC1CC1)c1c([N+](=O)[O-])cc(C(F)(F)F)c(N)c1[N+](=O)[O-],99 to 100 °C
11,CC1(C)CC(=O)C2=C(C1)NC1=C(C(=O)CC(C)(C)C1)C2c1cccc(Oc2ccccc2)c1,205 to 207 °C
12,CC(C)NC(=O)CN1CCN(CCc2ccc(-c3cccc(N)n3)cc2)CC1,163 to 165 °C
13,N#CCCCCCCNCc1ccc(O)cc1,42 to 44.5 °C
14,O=C(c1cccnc1)c1cc(-c2ccc(Cl)cc2)c(N2CCOCC2)s1,114 °C
15,CC(C)(C)c1cc(-c2nnc(C(N)=O)s2)cc(C(C)(C)C)c1O,200 to 201 °C
16,CCc1cc(C(C)C)c(-c2ccc(O)cc2)cc1C,106 to 108 °C
17,CC1CC2(C)C(O)CCC2C2C(C)CC3=CC(=O)CCC3C12 (stereo not given),155 to 157 °C
18,COc1cccc(C(=O)N2CCc3cc(O)c(OC)cc3C2=O)c1,198 to 199 °C
19,O=C1OC(c2cccc3ccccc23)=NC1=Cc1ccccc1,134 to 137 °C
20,N[C@]1(C(=O)O)[C@H]2[C@@H](C[C@H]1OCc1ccccc1)[C@@H]2C(=O)O,> 250 °C
21,COc1cccc(C(O)(c2nccs2)C(F)(F)F)c1 (stereo not given),88 to 92 °C
22,Nc1nc(-c2cc(Cl)ccc2Cl)nc(N2CCC(O)(c3ccccc3)CC2)n1,176 to 178 °C
23,COc1ccc(C2CCN(C(=O)C(=O)NO)CC2)cc1CC1CCCC1,138 °C
24,CC(C)Cc1nc2ccc(Br)cc2c(-c2ccccc2)c1CN1C(=O)c2ccccc2C1=O,164 to 165 °C
25,O=C(OCOC(=O)C1CCc2c(c3ccccc3n2C(=O)c2ccccc2)C1)c1ccccc1 (stereo not given),84 to 86 °C
